From patent publication EP1561465A2, “Methods of use of fluoroquinolone compounds against bacteria” (LG Life Sciences, Ltd., priority 1999, dated 2001)
In brackets after ≈: the same amount, converted by molar mass. Where two headings read alike, the source gives them in different places.

What was measured:
Assay type in all cases: cell-based
Moraxella catarrhalis [1] = test: MIC by NCCLS reference broth microdilution, 450 respiratory tract pathogens; settings: β-lactamase positive (n = 37)
Salmonella spp. = test: MIC by NCCLS broth microdilution, 1100 Japanese clinical isolates 1997-1998; settings: Salmonella spp. (n=29)
Staphylococcus aureus [2] = test: MIC by agar macrodilution (NCCLS), 373 Gram positive isolates, Athens 1998; settings: Methicillin-susceptible Staphylococcus aureus (n = 85)
Aeromonas spp. = test: MIC by agar dilution (NCCLS M7-A4), 288 enteropathogenic isolates, eight quinolones; settings: Aeromonas spp. (n = 16)
Haemophilus influenzae [3] = test: MIC by agar dilution (NCCLS), 411 isolates Buenos Aires 1998-99; settings: Haemophilus influenzae (n = 65)
Enterococcus faecalis = test: MIC by agar macrodilution (NCCLS), 373 Gram positive isolates, Athens 1998
Staphylococcus aureus [4] = test: MIC by NCCLS broth microdilution, 1100 Japanese clinical isolates 1997-1998; settings: for MIC50 / MIC90 / MIC: Staphylococcus aureus; for MIC: Staphylococcus aureus quinolone resistant
Enterococcus gallinarum = test: as above
Citrobacter freundii = test: as above
[5] = test system: Staphylococcus epidermidis; test: as above; settings: for MIC50 / MIC90: Staphylococcus epidermidis
Haemophilus influenzae [6] = test: MIC by two-fold serial agar dilution, Sensitivity Disk agar-N (Kitasato isolates); settings: Haemophilus influenzae (24)
Moraxella catarrhalis [7] = test: MIC by agar dilution (NCCLS), 411 isolates Buenos Aires 1998-99; settings: Moraxella catarrhalis (n = 59)
Streptococcus pneumoniae = test: MIC by E-test (broth microdilution for gemifloxacin), 107 pneumococcal carrier isolates, Athens 1998; settings: E-test; for MIC Range: in µg/mL (unit assumed); for MIC50 / MIC90: Streptococcus pneumoniae; for MIC50: read-out: MIC50; for MIC90: read-out: MIC90
Description: Susceptibility testing was performed by agar dilution or epsilometer method (E-test), as recommended by the NCCLS. […] The susceptibility profiles of the strains were assessed using the Epsilometer method (E-test). The isolates were subdivided into two groups according to their penicillin susceptibility patterns (penicillin-susceptible and penicillin-intermediate.

[8] = Staphylococcus aureus oxacillin resistant (n=57)
[9] = Staphylococcus aureus oxacillin susceptible (n=41)
[10] = Staphylococcus epidermidis oxacillin resistant (n=43)
[11] = Staphylococcus epidermidis oxacillin susceptible (n=35)
[12] = Penicillin-intermediate S. pneumoniae (n = 24)
[13] = Penicillin-susceptible S. pneumoniae (n = 107)

SMILES: CO/N=C1\CN(c2nc3c(cc2F)c(=O)c(C(=O)O)cn3C2CC2)CC1CN (racemic) [Gemifloxacin, (R,S)-7-(3-aminomethyl-4-methoxyiminopyrrolidin-1-yl)-1-cyclopropyl-6-fluoro-4-oxo-1,4-dihydro-1,8-naphthyridine-3-carboxylic acid]
- MIC90 (Moraxella catarrhalis [1]): 0.015 µg/mL (≈ 0.0385 µM)
- MIC50 (Salmonella spp.): 0.032 µg/mL (≈ 0.0822 µM)
- MIC90 (Salmonella spp.): 0.032 µg/mL (≈ 0.0822 µM)
- MIC Range (Staphylococcus aureus [2]): ≤0.03 to 4 µg/mL
- MIC50 (Staphylococcus aureus [2]; read-out: MIC50): 0.06 µg/mL (≈ 0.154 µM)
- MIC90 (Staphylococcus aureus [2]; read-out: MIC90): 0.125 µg/mL (≈ 0.321 µM)
- % Susceptible (Aeromonas spp.): 100%
- MIC50 (Aeromonas spp.): ≤ 0.015 µg/mL
- MIC90 (Aeromonas spp.): 0.03 µg/mL (≈ 0.077 µM)
- MIC Range (Aeromonas spp.): ≤0.015 to 0.12 µg/mL
- MIC90 (Haemophilus influenzae [3]): 0.008 µg/mL (≈ 0.0205 µM)
- MIC Range (Haemophilus influenzae [3]): ≤0.004 to 0.125 µg/mL
- MIC distribution (µg/ml) 0.03 (Enterococcus faecalis): 2
- MIC distribution (µg/ml) 0.06 (Enterococcus faecalis): 2
- MIC distribution (µg/ml) 0.125 (Enterococcus faecalis): 24
- MIC distribution (µg/ml) 0.25 (Enterococcus faecalis): 22
- MIC distribution (µg/ml) 1 (Enterococcus faecalis): 2
- MIC distribution (µg/ml) 2 (Enterococcus faecalis): 1
- MIC distribution (µg/ml) 4 (Enterococcus faecalis): 5
- MIC distribution (µg/ml) 8 (Enterococcus faecalis): 9
- MIC distribution (µg/ml) 16 (Enterococcus faecalis): 5
- MIC distribution (µg/ml) ≤0.015 (Enterococcus faecalis): 0
- MIC distribution (µg/ml) ≥32 (Enterococcus faecalis): 4
- MIC50 (Enterococcus faecalis; Enterococcus faecalis, n = 81 isolates, read-out: MIC50): 0.25 µg/mL (≈ 0.642 µM)
- MIC90 (Enterococcus faecalis; Enterococcus faecalis, n = 81 isolates, read-out: MIC90): 16 µg/mL (≈ 41.1 µM)
- MIC distribution (µg/ml) 0.5 (Enterococcus faecalis; number of isolates at MIC 0.5 µg/ml, n = 81): 5
- MIC Range (Staphylococcus aureus [4]; [8]): ≤0.008 to 64 µg/mL
- MIC Range (Staphylococcus aureus [4]; [9]): ≤0.008 to 1 µg/mL
- MIC50 (Staphylococcus aureus [4]; [8]): 1 µg/mL (≈ 2.57 µM)
- MIC90 (Staphylococcus aureus [4]; [8]): 32 µg/mL (≈ 82.2 µM)
- MIC50 (Staphylococcus aureus [4]; [9]): 0.063 µg/mL (≈ 0.162 µM)
- MIC90 (Staphylococcus aureus [4]; [9]): 0.063 µg/mL (≈ 0.162 µM)
- MIC (Staphylococcus aureus [4]; strain TMS1* (spontaneous mutant resistant to ciprofloxacin)): 0.032 µg/mL (≈ 0.0822 µM)
- MIC (Staphylococcus aureus [4]; strain TMS2* (spontaneous mutant resistant to ciprofloxacin)): 1 µg/mL (≈ 2.57 µM)
- MIC (Staphylococcus aureus [4]; strain TMS3, read-out: MIC): 32 µg/mL (≈ 82.2 µM)
- MIC (Staphylococcus aureus [4]; strain TMS4, read-out: MIC): 4 µg/mL (≈ 10.3 µM)
- MIC (Staphylococcus aureus [4]; strain TMS5, read-out: MIC): 2 µg/mL (≈ 5.14 µM)
- MIC (Staphylococcus aureus [4]; strain TMS6, read-out: MIC): 0.25 µg/mL (≈ 0.642 µM)
- MIC (Enterococcus gallinarum; Enterococcus gallinarum (vanC1), strain TMS3): 0.125 µg/mL (≈ 0.321 µM)
- MIC (Enterococcus gallinarum; Enterococcus gallinarum, GALLINARUM): 0.125 µg/mL (≈ 0.321 µM)
- MIC (Enterococcus gallinarum; Enterococcus gallinarum, GALLINARUM, Enterococcus gallinarum (vanC1), strain TMS1, read-out: MIC): 0.032 µg/mL (≈ 0.0822 µM)
- MIC (Enterococcus gallinarum; Enterococcus gallinarum, GALLINARUM, Enterococcus gallinarum (vanC1), strain TMS4, read-out: MIC): 0.032 µg/mL (≈ 0.0822 µM)
- MIC50 (Citrobacter freundii; Citrobacter freundii): 0.125 µg/mL (≈ 0.321 µM)
- MIC90 (Citrobacter freundii; Citrobacter freundii (n=39)): 2 µg/mL (≈ 5.14 µM)
- MIC Range (Citrobacter freundii; Citrobacter freundii (n=39)): 0.016 to 4 µg/mL
- MIC Range [5, 10]: 0.032 to 4 µg/mL
- MIC Range [5, 11]: ≤0.008 to 2 µg/mL
- MIC50 [5, 10]: 0.5 µg/mL (≈ 1.28 µM)
- MIC90 [5, 10]: 2 µg/mL (≈ 5.14 µM)
- MIC50 [5, 11]: 0.032 µg/mL (≈ 0.0822 µM)
- MIC90 [5, 11]: 0.5 µg/mL (≈ 1.28 µM)
- MIC50 (Haemophilus influenzae [6]): 0.016 µg/mL (≈ 0.0411 µM)
- MIC90 (Haemophilus influenzae [6]): 0.016 µg/mL (≈ 0.0411 µM)
- MIC Range (Haemophilus influenzae [6]): 0.008 to 0.031 µg/mL
- MIC Range (Moraxella catarrhalis [7]): ≤0.004 to 0.016 µg/mL
- MIC90 (Moraxella catarrhalis [7]; read-out: MIC90): 0.008 µg/mL (≈ 0.0205 µM)
- MIC Range (Streptococcus pneumoniae; [12]): 0.004-0.125
- MIC Range (Streptococcus pneumoniae; [13]): 0.002-0.19
- MIC50 (Streptococcus pneumoniae; [12]): 0.064 µg/mL (≈ 0.164 µM)
- MIC90 (Streptococcus pneumoniae; [12]): 0.23 µg/mL (≈ 0.591 µM)
- MIC50 (Streptococcus pneumoniae; [13]): 0.032 µg/mL (≈ 0.0822 µM)
- MIC90 (Streptococcus pneumoniae; [13]): 0.064 µg/mL (≈ 0.164 µM)
